Measurements as given in PubChem BioAssay (NCI).
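GI50 marks 50% less growth. TGI marks complete inhibition of growth.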

Legend:
Experiment in all cases: DTP human tumour cell line panel, 384-well format
TK-10 renal = system: TK-10 renal
KM12 colon = system: KM12 colon
A549 NSCLC = system: A549 NSCLC
M14 melanoma = system: M14 melanoma
U251 glioblastoma = system: U251 glioblastoma
UO-31 renal = system: UO-31 renal
BT-549 breast = system: BT-549 breast
OVCAR-8 ovarian = system: OVCAR-8 ovarian
SK-OV-3 ovarian = system: SK-OV-3 ovarian
HL-60(TB) leukemia = system: HL-60(TB) leukemia
SW-620 colon = system: SW-620 colon
SF-539 CNS = system: SF-539 CNS
MCF7 breast = system: MCF7 breast

In the case of `CC(C)(O)CNc1nc(Nc2ccnc(C(F)(F)F)c2)nc(-c2cccc(C(F)(F)F)n2)n1`, the GI50 (TK-10 renal) is reported as 19.8 µM, the TGI (TK-10 renal) is reported as 43.4 µM and the GI50 (KM12 colon) is reported as 17.9 µM. The TGI (KM12 colon) was 34.8 µM, the GI50 (A549 NSCLC) was 17.3 µM and the TGI (A549 NSCLC) was 35.4 µM. It also gave a GI50 (M14 melanoma) of 19.8 µM, a TGI (M14 melanoma) of 35.2 µM and a GI50 (U251 glioblastoma) of 18.8 µM. It also gave a TGI (U251 glioblastoma) of 38.7 µM, a GI50 (UO-31 renal) of 21.1 µM and a TGI (UO-31 renal) of 40.9 µM. The GI50 (BT-549 breast) was 16 µM, the TGI (BT-549 breast) was 29.7 µM and the GI50 (OVCAR-8 ovarian) was 17.4 µM. For the same molecule, the TGI (OVCAR-8 ovarian) was 38.3 µM, the GI50 (SK-OV-3 ovarian) was 20.9 µM and the TGI (SK-OV-3 ovarian) was 40.9 µM. It also gave a GI50 (HL-60(TB) leukemia) of 14.9 µM, a TGI (HL-60(TB) leukemia) of 28.3 µM and a GI50 (SW-620 colon) of 24.4 µM. The TGI (SW-620 colon) was 55.2 µM, the GI50 (SF-539 CNS) was 16.3 µM and the TGI (SF-539 CNS) was 30.9 µM. The GI50 (MCF7 breast) was 15.9 µM and the TGI (MCF7 breast) was 30.5 µM.
